{"source": "patent US20090215710A1", "about": "“CARBOHYDRATE BASED TOLL-LIKE RECEPTOR (TLR) ANTAGONISTS” (RELIANCE LIFE SCIENCES PVT. LTD., priority 2007, published 2009)", "key": {"TNF": {"test_system": "TNF", "test": "Pre-screen for TNF inhibition activity of synthesized molecules (Table 1)", "type": "cell-based"}, "TLR6": {"molecular_target": "T1, TLR6 (Homo sapiens, UniProt Q9Y2C9)", "T1 construct": "endogenous in cells; host or cells: THP-1 monocytes and/or PBMCs", "T1 sequence (Q9Y2C9 32-796)": "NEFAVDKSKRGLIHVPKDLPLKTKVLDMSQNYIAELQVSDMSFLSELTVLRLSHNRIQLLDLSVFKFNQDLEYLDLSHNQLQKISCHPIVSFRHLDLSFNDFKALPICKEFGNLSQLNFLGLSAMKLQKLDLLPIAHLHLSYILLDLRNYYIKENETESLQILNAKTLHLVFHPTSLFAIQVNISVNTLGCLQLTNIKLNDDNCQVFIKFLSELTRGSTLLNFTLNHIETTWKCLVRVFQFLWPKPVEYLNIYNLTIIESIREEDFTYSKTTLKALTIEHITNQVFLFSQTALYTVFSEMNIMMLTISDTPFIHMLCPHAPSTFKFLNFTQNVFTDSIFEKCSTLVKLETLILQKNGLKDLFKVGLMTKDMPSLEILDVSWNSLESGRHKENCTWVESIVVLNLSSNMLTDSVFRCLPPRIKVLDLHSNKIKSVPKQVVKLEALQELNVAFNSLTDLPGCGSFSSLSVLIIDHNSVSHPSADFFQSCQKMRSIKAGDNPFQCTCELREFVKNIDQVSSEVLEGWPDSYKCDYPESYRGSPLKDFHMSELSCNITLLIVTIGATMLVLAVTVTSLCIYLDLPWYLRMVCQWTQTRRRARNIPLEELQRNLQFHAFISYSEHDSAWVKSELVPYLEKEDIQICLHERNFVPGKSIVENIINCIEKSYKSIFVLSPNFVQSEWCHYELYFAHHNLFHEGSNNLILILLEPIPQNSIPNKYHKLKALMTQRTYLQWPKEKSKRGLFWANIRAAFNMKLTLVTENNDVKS", "test": "TLR6 ligand induced TNF-α secretion (ELISA)", "type": "cell-based", "settings": "cells treated with TLR6 ligand 75 ng/ml", "protocol": "The present invention has checked the effect of various TLR ligands on THP-1 monocytes, PBMCs and their ability to activate and release TNF-α. For this purpose about 9 TLR ligands were used. These ligands were obtained from Apotech Cat; APO-54N-018-K100 and assayed for TNF-α release in culture supernatants.\nTHP-1 and PBMCs (2×10^5 cells/well) were plated in 96-well plate. The cells were pretreated with RSCL-0409 in DMSO 1 hr prior to TLR ligand treatment. Following 1 hr pre-treatment, the cells were treated with TLR ligands [TLR2, TLR5 and TLR6-75 ng/ml each, TLR3-75 μg/ml, TLR4-750 ng/ml, TLR7, TLR8 and TLR9-7.5 μg/ml) for 24 hrs. The culture supernatant were collected after the stipulated time and assayed for TNF-α release using a Duoset Enzyme-Linked ImmunoSorbent Assay (ELISA) detection Kit (R&D systems, MN 55413, USA; Cat: DY-210 E). Simultaneously supernatants were collected from cells treated with ligands without pre-treatment with RSCL-0409 and only RSCL-0409 without ligand treatment."}, "TNF-α": {"test_system": "TNF-α", "test": "LPS induced TNF-α secretion in THP-1 monocytes, dose dependence (ELISA)", "type": "cell-based, human", "settings": "THP-1, LPS 250 ng/ml, 100, 50, 10 and 1 μM, 24 hr", "protocol": "To confirm whether the inhibitory effect of RSCL-0409 is dose-dependent, the present invention has studied the ability of RSCL-0409 to inhibit TNF-α secretion from LPS (250 ng/ml) induced THP-1 monocytes (FIG. 2a).\nTHP-1, 2×10^5 cells/well was plated in 96-well plate. The cells were pretreated with RSCL-0409 at various concentrations (100 μM, 50 μM, 10 μM and 1 μM) 1 hr prior to LPS stimulation. As a control group, cells were treated with LPS alone and cells treated with RSCL-0409 alone were used. TNF-α secretion was estimated in the culture supernatants following 24 hr LPS stimulation using Duoset ELISA detection Kit (R&D systems, MN, USA). *P<0.05, ***P<0.001 values are comparisons for LPS treated vs. RSCL-0409 treated, NS indicates not significant."}, "TNF-α mRNA": {"test_system": "TNF-α mRNA", "test": "TNF-α mRNA expression in LPS stimulated THP-1 cells (real-time PCR)", "type": "cell-based, human", "settings": "THP-1, LPS 250 ng/ml 1 hr", "protocol": "(§1) To determine whether the suppressive effect of RSCL-0409 on the cytokine production occurs at mRNA expression level, quantitative real-time PCR was used to examine TNF-α and IL-6 mRNA expression in THP-1 cells stimulated with LPS. THP-1 cells (3×10^6 cells/well) were stimulated with 250 ng/ml LPS in the presence or absence of RSCL-0409 at indicated concentrations for the 1 hr. Total RNA was isolated from these cells and cDNA was synthesized. LPS treated cells acted as positive control. All quantitative real-time PCR (TaqMan™) primers and probes were obtained from Applied Biosystems (ABI), Weiterstadt, Germany. For detection of TNF-α, pre-developed assay reagents (Universal master mix as obtained from Applied Biosystems included all reagents including Taq-polymerase apart from specific primers and probes) were used. The PCR was performed utilizing 1 μl cDNA per reaction in triplicates of 25 μl volume on an ABI 7500 Realtime PCR machine using a 2-step PCR protocol.\n(§2) Quantization of mRNA was performed using the comparative threshold cycle method and analysed using standard software and expressed in fold change. The fold change of TNF-α (FIG. 5a) and IL-6 (FIG. 5b) mRNA in treated cells over control was obtained after correction for the amount of β-actin. […] The expression levels of both TNF and IL-6 decreased following 1 hr pretreatment with RSCL-0409 in the presence of LPS. […]"}, "IL-6 mRNA": {"test_system": "IL-6 mRNA", "test": "IL-6 mRNA expression in LPS stimulated THP-1 cells (real-time PCR)", "type": "cell-based, human", "settings": "THP-1, LPS 250 ng/ml 1 hr", "protocol": "as §1, §2"}, "[1]": {"test_system": "ICAM-1, COX-2, IL-1β and IL-8 genes", "test": "mRNA expression of pro-inflammatory genes in THP-1 cells", "type": "cell-based, human", "settings": "THP-1, LPS 250 ng/ml", "protocol": "The inhibitory effect of the present invention, RSCL-0409 on mRNA was checked on pro-inflammatory genes like intercellular adhesion molecule1 (ICAM-1), cyclooxygenase 2 (COX-2), IL-1β and IL-8. THP-1 cells (3×10^6 cells) were seeded in a 6-well dish. The cells were treated with RSCL-0409 ([…]) for 1 hr followed by incubation with or without 250 ng/ml of LPS. After two washes with ice-cold PBS, the cells were harvested and total cellular RNA was isolated using TRIZOL Reagent (Invitrogen) according to the manufacturer's instructions. cDNA synthesis was done using high capacity cDNA reverse transcription kit (ABI systems). Amplification of ICAM-1, COX-2, IL-1β and IL-8 genes from the cDNA was carried out using the respective gene specific primers."}}, "data": [{"smiles": "COc1ccc(OC2OC3COC(c4ccccc4)OC3C(OC3OC(COC(=O)CCC(C)=O)C(OC(=O)CCl)C(OC(C)=O)C3OC(C)=O)C2NC(=O)C(Cl)(Cl)Cl)cc1", "note": "[RSCL-0409, p-Methoxy phenyl-O-(2,3-di-O-acetyl-4-O-chloroacetyl-6-O-levulinoyl-β-D-glucopyranosyl)-(1-3)-2-deoxy-2-trichloroacetamido-4,6-O-benzylidene-α-D-glucopyranoside]", "values": [{"measurement": "% TNF Inhibition", "setting": "TNF; 1 uM", "result": 0, "unit": "%"}, {"measurement": "% TNF Inhibition", "setting": "TNF; 10 uM", "result": 32, "unit": "%"}, {"measurement": "% TNF Inhibition", "setting": "TNF; 50 uM", "result": 81, "unit": "%"}, {"measurement": "% TNF Inhibition", "setting": "TNF; 100 uM", "result": 91, "unit": "%"}, {"measurement": "effect on TNF-α secretion", "setting": "TLR6", "result": "no effect observed"}, {"measurement": "LPS induced TNF-α secretion", "setting": "TNF-α", "result": "inhibited by RSCL-0409 in a concentration dependent manner"}, {"measurement": "TNF-α mRNA expression", "setting": "TNF-α mRNA", "result": "down regulated TNF-α to almost control levels"}, {"measurement": "IL-6 mRNA expression", "setting": "IL-6 mRNA", "result": "The same was observed with IL-6 also in a concentration dependent manner"}, {"measurement": "mRNA expression of ICAM-1, COX-2, IL-1β and IL-8", "setting": "[1]", "result": "inhibited mRNA expression levels of the tested genes"}]}]}
